How the values were obtained:
[1] = target: T1, MRP1 (ABCC1) (Homo sapiens, UniProt P33527); assay: Calcein AM accumulation in MRP1-overexpressing HEK293 cells (flow cytometry); format: cell-based, mammalian; conditions: Calcein AM 2.5 μg/mL
T1 construct: expressed in transfected cells; host or cells: HEK293
Procedure: P-gp overexpressing HEK293 cell lines were used to determine if azoffluxin treatment leads to a greater accumulation of fluorescent substrates (MFI) as determined by flow cytometry.
MDR1 (ABCB1) and MRP1 (ABCC1) was assessed using the fluorescent dyes rhodamine 6G (0.5 μg/mL) and Calcein AM (2.5 μg/mL), for each pump respectively, and the known inhibitor controls tariquidar (60 nM) and MK571 (30 μM) for each pump respectively. Listed data is shown by FIG. 12E (R6G) and FIG. 12F (Cal).

[2] = system: 293T cells; assay: 293T cells grown without C. auris (luciferase signal); format: cell-based, human; conditions: 293T cells without C. auris, any treatment condition
Procedure: FIG. 10A depicts mammalian embryonic kidney (293T) cells expressing luciferase used to quantify mammalian cell growth in co-culture. Mammalian cells were seeded in 384-well plates in DMEM medium at 5×10^5 cells/mL overnight. After 24 hours the indicated concentration of compound (⋅ indicates combo treatment concentrations) was added along with 2.5×10^3 cells/mL of C. auris. Co-cultures were incubated for 48 hours at 37° C. and then the luminescence was measured as an output of mammalian cell growth. Error represents standard deviation between technical quadruplicates, (***) indicates a p-value<0.001 between 293T cells alone and co-culture growth for each condition. […] FIG. 10C depicts checkerboard assays performed as described in FIG. 2B with C. auris Clade IV isolate B11801. Relative growth was measured after 24 hours using OD600 and normalized to no-drug control wells (see color bar). The FICI calculated for each checkerboard is shown in the top right of each plot, with values<0.5 indicating synergy. FIG. 10D depicts kidney fungal burden (CFU) in mice from each treatment group (n=3) that had been infected with C. auris B11801. […] The significance of differences between combination treatment and treatment with each compound alone was determined by two-tailed unpaired student t-test, (***) p-value<0.001. […]

[3] = system: C. auris; assay: Sterol composition by LC-MS; format: cell-based, Candida auris; conditions: 18 hours
Text: FIGS. 3A-3B, and 4A-4B illustrate azoffluxin increases fluconazole (FLC) bioavailability by inhibiting Cdr1-mediated efflux in C. auris, as described above. FIG. 3A depicts the relative abundance of specific sterols determined in C. auris after an 18-hour treatment with the respective compounds (⋅ indicates combo treatment concentrations) using LC-MS. Values are plotted relative to the internal standard of cholesterol and error bars indicate standard deviation between technical triplicates. Significance was determined by an unpaired student t-test of each condition to untreated, (*) indicates a p-value<0.05 and (**) indicates a p-value<0.01. FIG. 3B depicts the intracellular concentrations of FLC and azoffluxin measured after treatment for 1 hour (conditions as in FIG. 3A) Error bars indicate standard deviation between technical triplicates. Significance was determined by an unpaired student t-test, (**) indicates a p-value<0.01. FIG. 4A depicts the quantified relative expression of a panel of putative efflux pumps in C. auris Ci6684. Expression of CDR1 (B9J08_000164), MDR1 (B9J08_003981), CDR4-1 (B9J08_000479), CDR4-2 (B9J08_002451), SNQ2-1 (B9J08_001125), and SNQ2-2 (B9J08_004452) was measured by RT-qPCR. […] FIG. 4B depicts expression of CDR1 (B9J08_000164) and CDR4-1 (B9J08_000479) measured by quantitative real-time PCR (RT-qPCR). […]

T1 sequence (P33527 whole entry): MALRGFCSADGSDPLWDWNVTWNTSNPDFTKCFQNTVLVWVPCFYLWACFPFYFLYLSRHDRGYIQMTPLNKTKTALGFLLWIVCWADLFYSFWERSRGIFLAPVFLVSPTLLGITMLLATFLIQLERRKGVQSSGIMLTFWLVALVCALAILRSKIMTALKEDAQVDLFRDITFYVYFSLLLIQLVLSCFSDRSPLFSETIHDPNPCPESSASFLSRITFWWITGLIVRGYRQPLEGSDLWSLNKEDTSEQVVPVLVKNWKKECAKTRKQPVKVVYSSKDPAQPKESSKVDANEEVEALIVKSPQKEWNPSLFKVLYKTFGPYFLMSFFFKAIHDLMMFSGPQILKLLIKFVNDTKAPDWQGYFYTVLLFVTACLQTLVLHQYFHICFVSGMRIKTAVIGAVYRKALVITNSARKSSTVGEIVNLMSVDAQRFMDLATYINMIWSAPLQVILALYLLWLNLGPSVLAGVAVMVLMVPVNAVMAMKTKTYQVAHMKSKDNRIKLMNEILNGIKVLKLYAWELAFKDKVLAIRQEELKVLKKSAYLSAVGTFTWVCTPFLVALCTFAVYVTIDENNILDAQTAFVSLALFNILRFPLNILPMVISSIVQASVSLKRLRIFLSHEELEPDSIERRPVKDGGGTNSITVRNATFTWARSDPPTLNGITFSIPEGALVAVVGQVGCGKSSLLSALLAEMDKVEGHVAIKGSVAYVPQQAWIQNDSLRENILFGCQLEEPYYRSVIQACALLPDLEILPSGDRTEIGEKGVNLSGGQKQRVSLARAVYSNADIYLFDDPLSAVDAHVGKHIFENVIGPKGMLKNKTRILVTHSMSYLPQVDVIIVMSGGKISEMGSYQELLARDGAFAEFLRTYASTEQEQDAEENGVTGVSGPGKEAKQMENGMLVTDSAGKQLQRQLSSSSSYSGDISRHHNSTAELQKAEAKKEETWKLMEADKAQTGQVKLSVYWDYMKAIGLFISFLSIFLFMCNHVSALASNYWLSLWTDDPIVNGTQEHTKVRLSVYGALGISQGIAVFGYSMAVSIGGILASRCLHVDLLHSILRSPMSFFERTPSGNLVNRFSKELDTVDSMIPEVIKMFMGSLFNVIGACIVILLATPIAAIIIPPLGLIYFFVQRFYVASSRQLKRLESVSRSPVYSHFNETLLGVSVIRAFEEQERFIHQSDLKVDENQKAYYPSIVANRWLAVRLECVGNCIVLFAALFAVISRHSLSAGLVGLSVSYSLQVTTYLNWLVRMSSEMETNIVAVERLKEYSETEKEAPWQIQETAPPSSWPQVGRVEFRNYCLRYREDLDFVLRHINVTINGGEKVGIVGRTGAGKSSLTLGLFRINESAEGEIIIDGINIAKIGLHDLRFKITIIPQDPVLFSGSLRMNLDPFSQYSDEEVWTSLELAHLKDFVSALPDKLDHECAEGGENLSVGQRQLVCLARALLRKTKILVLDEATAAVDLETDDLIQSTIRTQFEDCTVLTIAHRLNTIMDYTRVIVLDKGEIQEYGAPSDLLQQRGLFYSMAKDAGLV

## C=C(C)C[C@@H](O)COc1cc2c(cc1C1(c3cc4c(cc3OC[C@H](O)CC(=C)C)OCO4)C(=O)Nc3cc(F)ccc31)OCO2 [CMLD012336]
[1]
  increase in calcein AM (Cal): 2.5 fold
[2]
  mammalian cytotoxicity: no detectable mammalian cytotoxicity
[3]; azoffluxin + low fluconazole vs low fluconazole alone
  increase in 14-α-methyl-3,6-diol: 4 fold
[3]; azoffluxin alone vs untreated
  abundance of ergosterol, lanosterol, 14-α-methyl-3,6-diol: No significant increases

Reference: patent US11773086B2, “Fungal modulators” (TRUSTEES OF BOSTON UNIVERSITY, priority 2020, dated 2023)
